Structures can show the parent of a compound that is named as a salt. Activity calls are given as the source filed them. On the calls: in the data inactive means no Kd found up to 30 µM.
Key:
[1] = molecular target: Dual specificity protein kinase CLK3 (Homo sapiens, UniProt P49761); format: subcellular, K-562, COLO 205, SK-N-BE(2) and MV-4-11, Cell lysate; conditions: read-out: Kd apparent
[2] = molecular target: T1, Long-chain-fatty-acid--CoA ligase 5 (Homo sapiens, UniProt Q9ULC5)
T1 sequence (Q9ULC5 whole entry): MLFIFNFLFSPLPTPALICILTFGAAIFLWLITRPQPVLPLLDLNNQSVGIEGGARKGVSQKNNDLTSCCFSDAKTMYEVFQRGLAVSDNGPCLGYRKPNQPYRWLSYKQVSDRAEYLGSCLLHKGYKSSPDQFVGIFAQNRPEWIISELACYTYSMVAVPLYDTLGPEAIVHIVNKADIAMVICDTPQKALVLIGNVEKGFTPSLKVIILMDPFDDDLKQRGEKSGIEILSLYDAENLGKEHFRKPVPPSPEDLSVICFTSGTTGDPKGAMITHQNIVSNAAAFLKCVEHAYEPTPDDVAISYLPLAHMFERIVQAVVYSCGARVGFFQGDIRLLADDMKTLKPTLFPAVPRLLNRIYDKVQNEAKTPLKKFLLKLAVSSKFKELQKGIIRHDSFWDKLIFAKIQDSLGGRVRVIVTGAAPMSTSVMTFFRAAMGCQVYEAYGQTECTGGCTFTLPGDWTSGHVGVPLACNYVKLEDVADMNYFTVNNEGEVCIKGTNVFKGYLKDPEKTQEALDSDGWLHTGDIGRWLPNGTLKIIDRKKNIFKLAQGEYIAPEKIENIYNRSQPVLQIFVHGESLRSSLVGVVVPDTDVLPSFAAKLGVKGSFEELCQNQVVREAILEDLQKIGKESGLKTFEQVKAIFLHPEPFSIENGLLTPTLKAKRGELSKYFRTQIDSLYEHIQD

[3] = molecular target: MAP kinase-activated protein kinase 3 (Homo sapiens, UniProt Q16644)
[4] = molecular target: Serine/threonine-protein kinase N3 (Homo sapiens, UniProt Q6P5Z2)
Chain of Serine/threonine-protein kinase N3 (Q6P5Z2 whole entry): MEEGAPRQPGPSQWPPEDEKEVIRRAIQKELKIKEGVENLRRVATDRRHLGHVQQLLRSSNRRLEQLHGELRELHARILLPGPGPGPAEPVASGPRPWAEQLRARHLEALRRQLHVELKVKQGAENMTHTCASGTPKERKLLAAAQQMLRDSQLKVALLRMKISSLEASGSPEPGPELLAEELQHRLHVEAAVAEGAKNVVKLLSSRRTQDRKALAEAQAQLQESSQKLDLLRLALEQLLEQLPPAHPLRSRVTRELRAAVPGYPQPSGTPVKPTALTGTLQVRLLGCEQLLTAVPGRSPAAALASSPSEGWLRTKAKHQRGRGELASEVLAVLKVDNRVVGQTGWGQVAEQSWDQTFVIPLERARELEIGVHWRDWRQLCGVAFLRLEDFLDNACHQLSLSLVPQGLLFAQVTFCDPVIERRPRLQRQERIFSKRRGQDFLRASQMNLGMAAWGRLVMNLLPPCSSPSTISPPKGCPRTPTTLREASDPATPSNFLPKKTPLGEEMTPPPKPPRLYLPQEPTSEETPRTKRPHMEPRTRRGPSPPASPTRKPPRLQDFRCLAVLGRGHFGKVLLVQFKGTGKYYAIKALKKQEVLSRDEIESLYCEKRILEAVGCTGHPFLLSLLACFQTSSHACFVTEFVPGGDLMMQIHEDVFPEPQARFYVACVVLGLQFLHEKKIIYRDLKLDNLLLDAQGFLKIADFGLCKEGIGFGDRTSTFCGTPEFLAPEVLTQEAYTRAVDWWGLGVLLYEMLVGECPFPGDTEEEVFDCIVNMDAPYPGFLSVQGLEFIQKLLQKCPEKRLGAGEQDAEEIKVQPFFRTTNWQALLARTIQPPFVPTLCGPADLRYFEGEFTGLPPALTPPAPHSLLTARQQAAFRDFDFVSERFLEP

[5] = molecular target: Serine/threonine-protein kinase PLK1 (Homo sapiens, UniProt P53350)
[6] = molecular target: Dual specificity testis-specific protein kinase 2 (Homo sapiens, UniProt Q96S53)
[7] = molecular target: Serine/threonine-protein kinase ATR (Homo sapiens, UniProt Q13535)
Chain of Serine/threonine-protein kinase ATR (Q13535 whole entry, the tested form may be a part): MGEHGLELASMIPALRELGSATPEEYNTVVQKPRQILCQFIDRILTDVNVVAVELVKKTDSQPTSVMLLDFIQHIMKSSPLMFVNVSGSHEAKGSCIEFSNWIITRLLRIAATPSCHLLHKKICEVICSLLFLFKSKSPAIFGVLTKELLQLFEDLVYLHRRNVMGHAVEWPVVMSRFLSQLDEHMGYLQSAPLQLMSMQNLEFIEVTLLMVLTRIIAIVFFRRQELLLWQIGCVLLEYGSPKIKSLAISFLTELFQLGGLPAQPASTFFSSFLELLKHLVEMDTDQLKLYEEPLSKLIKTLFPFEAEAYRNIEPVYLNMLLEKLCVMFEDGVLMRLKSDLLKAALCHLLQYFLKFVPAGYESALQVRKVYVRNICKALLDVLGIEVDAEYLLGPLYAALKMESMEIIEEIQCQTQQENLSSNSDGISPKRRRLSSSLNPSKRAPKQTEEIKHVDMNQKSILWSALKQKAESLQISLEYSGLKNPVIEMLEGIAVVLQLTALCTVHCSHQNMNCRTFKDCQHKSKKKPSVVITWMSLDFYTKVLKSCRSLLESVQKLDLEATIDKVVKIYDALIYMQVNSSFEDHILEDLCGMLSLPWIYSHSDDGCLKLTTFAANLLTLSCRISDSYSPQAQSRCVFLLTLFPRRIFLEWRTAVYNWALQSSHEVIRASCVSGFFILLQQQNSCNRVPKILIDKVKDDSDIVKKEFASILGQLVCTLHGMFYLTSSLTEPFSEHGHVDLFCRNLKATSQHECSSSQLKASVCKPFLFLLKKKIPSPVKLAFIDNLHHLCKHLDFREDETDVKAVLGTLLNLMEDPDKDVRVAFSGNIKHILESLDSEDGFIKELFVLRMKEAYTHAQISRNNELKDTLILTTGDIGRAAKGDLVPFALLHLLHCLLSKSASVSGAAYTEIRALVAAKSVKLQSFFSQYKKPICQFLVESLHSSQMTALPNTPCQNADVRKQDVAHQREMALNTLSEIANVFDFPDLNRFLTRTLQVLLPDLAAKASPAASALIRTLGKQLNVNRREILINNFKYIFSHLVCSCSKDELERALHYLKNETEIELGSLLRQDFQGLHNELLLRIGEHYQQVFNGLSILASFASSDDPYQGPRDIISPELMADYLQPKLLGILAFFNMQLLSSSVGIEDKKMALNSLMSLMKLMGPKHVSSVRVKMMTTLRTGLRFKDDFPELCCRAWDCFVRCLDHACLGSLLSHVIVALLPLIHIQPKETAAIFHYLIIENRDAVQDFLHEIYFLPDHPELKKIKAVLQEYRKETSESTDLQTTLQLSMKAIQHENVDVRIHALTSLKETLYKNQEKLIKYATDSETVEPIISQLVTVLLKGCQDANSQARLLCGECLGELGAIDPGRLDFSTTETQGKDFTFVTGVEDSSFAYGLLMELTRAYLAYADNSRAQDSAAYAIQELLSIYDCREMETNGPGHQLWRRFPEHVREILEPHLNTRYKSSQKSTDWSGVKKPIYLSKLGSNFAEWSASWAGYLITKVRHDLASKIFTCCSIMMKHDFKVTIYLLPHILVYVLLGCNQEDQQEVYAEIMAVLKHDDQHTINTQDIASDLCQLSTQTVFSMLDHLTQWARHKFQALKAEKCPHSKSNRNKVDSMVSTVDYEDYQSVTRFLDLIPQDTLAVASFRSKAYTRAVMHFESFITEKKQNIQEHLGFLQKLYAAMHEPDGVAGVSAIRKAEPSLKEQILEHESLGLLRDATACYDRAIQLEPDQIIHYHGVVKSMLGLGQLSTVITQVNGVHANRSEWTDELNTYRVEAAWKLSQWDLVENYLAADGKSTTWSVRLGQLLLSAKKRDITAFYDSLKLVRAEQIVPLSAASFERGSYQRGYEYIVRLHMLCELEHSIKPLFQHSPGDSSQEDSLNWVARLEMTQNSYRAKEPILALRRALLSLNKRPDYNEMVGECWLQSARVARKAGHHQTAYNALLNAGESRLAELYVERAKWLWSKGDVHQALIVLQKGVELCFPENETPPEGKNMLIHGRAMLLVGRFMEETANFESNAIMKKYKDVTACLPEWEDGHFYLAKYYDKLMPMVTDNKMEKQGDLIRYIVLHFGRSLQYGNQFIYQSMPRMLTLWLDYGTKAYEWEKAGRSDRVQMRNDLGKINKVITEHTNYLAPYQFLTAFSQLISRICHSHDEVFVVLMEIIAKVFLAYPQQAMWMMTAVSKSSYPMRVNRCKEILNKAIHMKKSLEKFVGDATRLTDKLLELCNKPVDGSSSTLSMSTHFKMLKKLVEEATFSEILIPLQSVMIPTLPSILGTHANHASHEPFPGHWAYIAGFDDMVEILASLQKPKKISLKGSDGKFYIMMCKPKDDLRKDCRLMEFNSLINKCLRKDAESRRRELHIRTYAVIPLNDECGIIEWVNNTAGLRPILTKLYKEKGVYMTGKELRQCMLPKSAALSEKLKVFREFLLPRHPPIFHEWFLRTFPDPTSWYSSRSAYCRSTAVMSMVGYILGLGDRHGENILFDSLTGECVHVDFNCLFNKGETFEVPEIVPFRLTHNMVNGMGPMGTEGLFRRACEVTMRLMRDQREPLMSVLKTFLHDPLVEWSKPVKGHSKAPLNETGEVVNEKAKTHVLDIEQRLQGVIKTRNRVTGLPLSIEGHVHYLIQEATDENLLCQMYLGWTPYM

[8] = molecular target: Uncharacterized aarF domain-containing protein kinase 5 (Homo sapiens, UniProt Q3MIX3)
Chain of Uncharacterized aarF domain-containing protein kinase 5 (Q3MIX3 whole entry, the tested form may be a part): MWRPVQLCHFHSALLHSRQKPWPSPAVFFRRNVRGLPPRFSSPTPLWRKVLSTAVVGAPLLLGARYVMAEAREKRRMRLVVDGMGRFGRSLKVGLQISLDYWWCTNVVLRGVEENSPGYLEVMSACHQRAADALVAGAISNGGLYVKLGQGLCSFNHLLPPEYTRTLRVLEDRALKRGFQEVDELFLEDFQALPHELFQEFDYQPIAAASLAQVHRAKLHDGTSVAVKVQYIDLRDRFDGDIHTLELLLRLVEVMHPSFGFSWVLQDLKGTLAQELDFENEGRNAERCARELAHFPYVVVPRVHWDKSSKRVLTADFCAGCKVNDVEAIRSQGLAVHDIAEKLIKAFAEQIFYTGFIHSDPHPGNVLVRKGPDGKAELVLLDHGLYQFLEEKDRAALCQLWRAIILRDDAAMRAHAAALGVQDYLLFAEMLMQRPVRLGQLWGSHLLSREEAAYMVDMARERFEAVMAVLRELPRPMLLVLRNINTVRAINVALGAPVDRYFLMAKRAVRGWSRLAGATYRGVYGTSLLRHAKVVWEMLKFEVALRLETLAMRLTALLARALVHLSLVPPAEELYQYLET

[9] = molecular target: T2, Isoleucine--tRNA ligase, mitochondrial (Homo sapiens, UniProt Q9NSE4)
T2 sequence (Q9NSE4 whole entry): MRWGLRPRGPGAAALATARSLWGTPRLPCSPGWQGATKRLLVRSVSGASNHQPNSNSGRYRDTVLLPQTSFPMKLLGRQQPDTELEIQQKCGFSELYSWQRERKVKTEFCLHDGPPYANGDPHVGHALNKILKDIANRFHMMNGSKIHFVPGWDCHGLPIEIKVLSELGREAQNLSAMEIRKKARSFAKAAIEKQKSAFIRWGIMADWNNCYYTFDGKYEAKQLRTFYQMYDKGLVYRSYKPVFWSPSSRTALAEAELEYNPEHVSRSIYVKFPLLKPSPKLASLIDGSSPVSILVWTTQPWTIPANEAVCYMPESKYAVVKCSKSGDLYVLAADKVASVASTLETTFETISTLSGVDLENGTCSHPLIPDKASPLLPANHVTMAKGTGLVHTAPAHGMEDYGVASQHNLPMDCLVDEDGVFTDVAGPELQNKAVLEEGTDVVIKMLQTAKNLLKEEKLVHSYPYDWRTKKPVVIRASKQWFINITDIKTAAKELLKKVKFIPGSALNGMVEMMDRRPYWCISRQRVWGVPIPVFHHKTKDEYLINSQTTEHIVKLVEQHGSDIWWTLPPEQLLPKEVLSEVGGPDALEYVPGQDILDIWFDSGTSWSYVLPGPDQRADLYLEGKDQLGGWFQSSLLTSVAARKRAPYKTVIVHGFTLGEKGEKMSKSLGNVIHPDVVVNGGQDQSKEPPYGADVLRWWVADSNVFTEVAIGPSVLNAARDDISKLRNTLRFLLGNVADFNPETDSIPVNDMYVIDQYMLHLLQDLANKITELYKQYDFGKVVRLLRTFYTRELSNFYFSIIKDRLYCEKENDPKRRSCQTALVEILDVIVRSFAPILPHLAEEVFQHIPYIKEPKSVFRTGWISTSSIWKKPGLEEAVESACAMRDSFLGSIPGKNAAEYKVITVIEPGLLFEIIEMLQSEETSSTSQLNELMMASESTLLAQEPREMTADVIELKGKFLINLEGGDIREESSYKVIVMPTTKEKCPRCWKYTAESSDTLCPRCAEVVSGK

[10] = molecular target: Choline-phosphate cytidylyltransferase A (Homo sapiens, UniProt P49585)
Chain of Choline-phosphate cytidylyltransferase A (P49585 whole entry): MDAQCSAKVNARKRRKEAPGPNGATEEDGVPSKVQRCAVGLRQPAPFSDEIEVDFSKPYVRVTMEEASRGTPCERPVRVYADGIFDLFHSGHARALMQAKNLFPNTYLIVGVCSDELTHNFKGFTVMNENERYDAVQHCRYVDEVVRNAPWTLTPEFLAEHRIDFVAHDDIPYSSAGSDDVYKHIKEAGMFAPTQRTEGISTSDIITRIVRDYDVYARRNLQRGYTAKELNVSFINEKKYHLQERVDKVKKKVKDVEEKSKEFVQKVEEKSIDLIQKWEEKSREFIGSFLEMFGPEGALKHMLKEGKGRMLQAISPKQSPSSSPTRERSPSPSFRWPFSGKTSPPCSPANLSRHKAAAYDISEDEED

Chain of Dual specificity protein kinase CLK3 (P49761 whole entry): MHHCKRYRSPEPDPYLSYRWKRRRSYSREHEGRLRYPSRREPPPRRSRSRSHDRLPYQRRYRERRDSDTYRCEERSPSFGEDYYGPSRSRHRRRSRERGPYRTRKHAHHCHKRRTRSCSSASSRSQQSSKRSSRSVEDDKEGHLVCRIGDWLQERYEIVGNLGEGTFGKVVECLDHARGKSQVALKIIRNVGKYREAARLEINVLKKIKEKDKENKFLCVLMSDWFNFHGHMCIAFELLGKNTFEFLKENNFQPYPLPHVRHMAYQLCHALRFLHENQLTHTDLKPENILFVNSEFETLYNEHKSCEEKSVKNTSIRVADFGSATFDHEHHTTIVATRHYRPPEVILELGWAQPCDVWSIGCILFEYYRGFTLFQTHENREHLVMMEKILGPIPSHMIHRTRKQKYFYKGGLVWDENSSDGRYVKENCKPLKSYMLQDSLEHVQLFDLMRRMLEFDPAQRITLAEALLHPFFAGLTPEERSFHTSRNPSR

Kd [1]	Kd [2]	Kd [3]	Kd [4]	Kd [5]	Kd [6]	Kd [7]	Kd [8]	Kd [9]	Kd [10]	SMILES
> 30 µM (inactive)	> 30 µM (inactive)	> 30 µM (inactive)	> 30 µM (inactive)	> 30 µM (inactive)	> 30 µM (inactive)					C=CC(=O)N1CCC[C@H](n2c(=O)n(-c3ccc(Oc4ccccc4)cc3)c3c(N)ncnc32)C1
	> 30 µM (inactive)	> 30 µM (inactive)	0.023 µM	> 30 µM (inactive)		0.005 µM				Nc1ncnc2c1c(-c1cccc(OCc3ccccc3)c1)cn2[C@H]1C[C@@H](CN2CCC2)C1 [AEW-541]
1.48 µM (active)		> 30 µM (inactive)			> 30 µM (inactive)		> 30 µM (inactive)	> 30 µM (inactive)		Cc1csc(-c2nnc(Nc3ccc(Oc4ncccc4-c4ccnc(N)n4)cc3)c3ccccc23)c1 [AMG-900]
> 30 µM (inactive)	> 30 µM (inactive)		> 30 µM (inactive)	> 30 µM (inactive)	> 30 µM (inactive)		> 30 µM (inactive)	> 30 µM (inactive)	> 30 µM (inactive)	O=C(Nc1c[nH]nc1-c1nc2cc(CN3CCOCC3)ccc2[nH]1)NC1CC1 [AT-9283]
	> 30 µM (inactive)	> 30 µM (inactive)	> 30 µM (inactive)		> 30 µM (inactive)	> 30 µM (inactive)	> 30 µM (inactive)			C=CC(=O)Nc1cc2c(Nc3ccc(F)c(Cl)c3)ncnc2cc1C#CC(C)(C)N1CCN(C)CC1 [AV-412 FREE BASE]
> 30 µM (inactive)			> 30 µM (inactive)	> 30 µM (inactive)			> 30 µM (inactive)		> 30 µM (inactive)	Cc1cc(C(=O)NOCCO)c(Nc2ccc(I)cc2F)n(C)c1=O [AZD-8330]
> 30 µM (inactive)	> 30 µM (inactive)	> 30 µM (inactive)		> 30 µM (inactive)		> 30 µM (inactive)	> 30 µM (inactive)	> 30 µM (inactive)		CCn1c(C(=O)N(C2CC2)C2CC2)cc2c3c(ncn3C)c(Nc3cc(C)n(C)n3)nc21 [BMS-911543]
> 30 µM (inactive)		> 30 µM (inactive)	> 30 µM (inactive)	> 30 µM (inactive)				> 30 µM (inactive)		COc1cc2ncnc(Oc3cccc(NC(=O)Nc4cc(C(C)(C)C(F)(F)F)on4)c3)c2cc1OC [CEP-32496]
	> 30 µM (inactive)	> 30 µM (inactive)	> 30 µM (inactive)	> 30 µM (inactive)		> 30 µM (inactive)	> 30 µM (inactive)			Cc1cc(Nc2ncc(Cl)c(Nc3ccccc3S(=O)(=O)C(C)C)n2)c(OC(C)C)cc1C1CCNCC1 [CERITINIB]
	> 30 µM (inactive)	> 30 µM (inactive)				> 30 µM (inactive)	> 30 µM (inactive)			CCS(=O)(=O)N1CCN(c2ccc(Nc3ncc(C(N)=O)c(NC4CC4)n3)cc2)CC1 [Cerdulatinib Hydrochloride]
> 30 µM (inactive)			> 30 µM (inactive)	> 30 µM (inactive)	> 30 µM (inactive)	> 30 µM (inactive)	> 30 µM (inactive)		> 30 µM (inactive)	COc1ccc(S(=O)(=O)N(C(C)=O)c2ccccc2/C=C/c2cc[n+]([O-])cc2)cc1 [HMN-214]
			> 30 µM (inactive)	> 30 µM (inactive)		> 30 µM (inactive)		> 30 µM (inactive)	> 30 µM (inactive)	CNC(=O)c1cccc2cc(Oc3ccnc4cc(OCC5(N)CC5)c(OC)cc34)ccc12 [LUCITANIB]
> 30 µM (inactive)	> 30 µM (inactive)		> 30 µM (inactive)		> 30 µM (inactive)	> 30 µM (inactive)	> 30 µM (inactive)		> 30 µM (inactive)	CNC(=O)c1nn(C)c2c1C(C)(C)Cc1cnc(Nc3ccc(N4CCN(C)CC4)cc3)nc1-2 [MILCICLIB]
	> 30 µM (inactive)	> 30 µM (inactive)	> 30 µM (inactive)					> 30 µM (inactive)	> 30 µM (inactive)	NC1(c2ccc(-c3nc4ccn5c(=O)[nH]nc5c4cc3-c3ccccc3)cc2)CCC1 [MK-2206]
	> 30 µM (inactive)	> 30 µM (inactive)		> 30 µM (inactive)		> 30 µM (inactive)	> 30 µM (inactive)	> 30 µM (inactive)		COc1ncc(-c2ccc3nccc(-c4ccnnc4)c3c2)cc1NS(=O)(=O)c1ccc(F)cc1F [OMIPALISIB]
> 30 µM (inactive)	> 30 µM (inactive)		> 30 µM (inactive)		> 30 µM (inactive)		> 30 µM (inactive)	> 30 µM (inactive)	> 30 µM (inactive)	Cc1[nH]c(/C=C2\C(=O)Nc3ccccc32)c(C)c1CCC(=O)O [ORANTINIB]
	> 30 µM (inactive)	> 30 µM (inactive)	> 30 µM (inactive)		> 30 µM (inactive)	> 30 µM (inactive)	> 30 µM (inactive)	> 30 µM (inactive)		O=C(NOCCO)c1cc(CN2OCCCC2=O)c(F)c(F)c1Nc1ccc(I)cc1F [RO-4987655]
> 30 µM (inactive)			> 30 µM (inactive)	> 30 µM (inactive)	> 30 µM (inactive)		> 30 µM (inactive)	> 30 µM (inactive)	> 30 µM (inactive)	CO[C@H]1C[C@@H]2CC[C@@H](C)[C@@](O)(O2)C(=O)C(=O)N2CCCC[C@H]2C(=O)O[C@H]([C@H](C)C[C@@H]2CC[C@@H](O)[C@H](OC)C2)CC(=O)[C@H](C)/C=C(\C)[C@@H](O)[C@@H](OC)C(=O)[C@H](C)C[C@H](C)/C=C/C=C/C=C/1C [SIROLIMUS]
> 30 µM (inactive)	> 30 µM (inactive)			> 30 µM (inactive)	> 30 µM (inactive)		> 30 µM (inactive)	> 30 µM (inactive)	> 30 µM (inactive)	O=C(Cc1ccc(-c2ccc(OCCN3CCOCC3)cc2)cn1)NCc1ccccc1 [TIRBANIBULIN]
> 30 µM (inactive)	> 30 µM (inactive)	> 30 µM (inactive)			> 30 µM (inactive)		> 30 µM (inactive)			O=C1NC(=O)[C@@H](c2cn3c4c(cccc24)CCC3)[C@@H]1c1c[nH]c2ccccc12 [TIVANTINIB]
	> 30 µM (inactive)			> 30 µM (inactive)		> 30 µM (inactive)			> 30 µM (inactive)	CC(C)c1cc(CNc2nc(Nc3cc(C4CC4)[nH]n3)cc(N3CCN(C)CC3)n2)on1 [XL-228]

SMILES	Kd [1]	Kd [2]	Kd [3]	Kd [4]	Kd [5]	Kd [6]	Kd [7]	Kd [8]	Kd [9]	Kd [10]
Cn1cc(C2=C(c3cn(C4CCN(Cc5ccccn5)CC4)c4ccccc34)C(=O)NC2=O)c2ccccc21 [ENZASTAURIN]			> 30 µM (inactive)			> 30 µM (inactive)	> 30 µM (inactive)			
O=C(Nc1nc2cccc(-c3ccc(CN4CCS(=O)(=O)CC4)cc3)n2n1)C1CC1 [FILGOTINIB]					> 30 µM (inactive)		> 30 µM (inactive)	> 30 µM (inactive)	> 30 µM (inactive)	> 30 µM (inactive)
CCOc1cc2ncc(C#N)c(Nc3ccc(F)c(Cl)c3)c2cc1NC(=O)/C=C/CN(C)C [PELITINIB]			> 30 µM (inactive)	> 30 µM (inactive)	> 30 µM (inactive)			> 30 µM (inactive)	> 30 µM (inactive)	
